Results reported in article PMC10113214 (Scientific Reports, 2023).

Columns and labels:
[1] = system: 46BR.1N fibroblasts; assay: LDH cytotoxicity assay, 46BR.1N; type: cell-based, human; details: 150 µg/ml, 48 h, 3 independent experiments, n = 12
Experimental: (§1) Human HaCaT keratinocytes (DKFZ, Heidelberg, Germany)[47],[48], the human dermal fibroblast 46BR.1N cell line (ECACC, Sigma Aldrich Co.) and human primary dermal fibroblasts used in this study were routinely cultured in culture flasks (growth surface area: 25 cm^2) in DMEM-HG medium supplemented with 10% fetal bovine serum, 100 U/mL penicillin and […] streptomycin under standard conditions.
(§2) Briefly, the HaCaT and 46BR.1N cells were seeded in 96-well plates at a density of 5000 per well. Cell stimulation with RADA derivatives was performed using a protocol described before[49],[50]. Both assays were performed according to the manufacturers’ instructions (XTT- Roche, Cat. No. 11465015001; LDH- Takara, Cat. No. MK401).

[2] = system: dorsal skin wounds; assay: Histological evaluation of skin samples; type: in vivo, BALB/c mice; details: Masson’s trichrome, versus RADA16-I group, Mann–Whitney U test
Description: Mice were sacrificed on day 18 post-injury. In addition, for investigation of early wound healing, 1 mouse from each group was sacrificed on day 4 post-injury. The skin samples were collected and stored in formalin. Skin samples embedded in paraffin were cut into 5 µm sections following staining with Masson’s trichrome (green: collagen, dermis; grey or dark grey: cell nuclei, epidermis, sebaceous glands; dark red: keratinized epidermis, muscle, hair; light red: red blood cells). Image acquisitions were made with a Leica DM IL microscope. To evaluate the collagen density in dorsal skin wounds, we employed the method of colour deconvolution described by Ruifrok and Johnston[52]. Using the ImageJ software with a colour deconvolution plug-in[53], we analyzed between 7 and 9 images of dorsal skin samples stained with Masson’ trichrome, representing 2–3 mice per group. The results are presented as mean relative collagen density.

[3] = system: HaCaT keratinocytes; assay: LDH cytotoxicity assay, HaCaT; type: cell-based, human; details: 150 µg/ml, 48 h, 3 independent experiments, n = 12
Experimental: as §1, §2

[4] = system: full-thickness excisional dorsal skin wounds; assay: Skin wound healing model in mice; type: in vivo, BALB/c mice
Experimental: Eight to ten-week-old BALB/c female mice were used for these experiments. All experimental procedures were approved by the Local Ethics Committee for Animal Experimentation in Bydgoszcz, Poland (Approval No. 49/2016). The study was conducted in compliance with the ARRIVE gudidelines. All animal handling methods were carried out in accordance with European Union Commission Recommendation of 18 June 2007 on guidelines for the accommodation and care of animals used for experimental and other scientific purposes. Before experiments, mice were randomized and divided into groups comprising six individuals. The mice were anaesthetized with inhaled 2–5% isoflurane. The skin on the dorsum was shaved and disinfected. After the skin was folded and raised cranially and caudally along the spine, the mouse was placed in a lateral position, and the folded skin was pierced with a 6.0 mm biopsy punch to make two through-and-through symmetrical wounds. Next, 10 µL of peptide hybrid hydrogel was applied onto each wound. Every gel was prepared in sterile conditions in biological safety cabinet, using sterile water to final concentration of 10 mg/ml (1%). Then the gels were incubated for 24 h allowing it to assemble. Control mice were treated with RADA16-I. The wounds were covered with a transparent Tegaderm TM dressing to protect the wound from outer environment of the cage and other animals. It was fastened with an adhesive plaster wrapped around the animal’s torso. The peptide hybrids were applied daily to the wounds for five consecutive days. The dressings were replaced daily in the first five days of the experiment and every second day until the end of the second week of the experiment. To measure the wound areas the wounds were photographed with a ruler placed next to the injury site. Wound areas were calculated using the computer-assisted image analysis program ImageJ[51].

CC(=O)N[C@@H](CCCNC(=N)N)C(=O)N[C@@H](C)C(=O)N[C@@H](CC(=O)O)C(=O)N[C@@H](C)C(=O)N[C@@H](CCCNC(=N)N)C(=O)N[C@@H](C)C(=O)N[C@@H](CC(=O)O)C(=O)N[C@@H](C)C(=O)N[C@@H](CCCNC(=N)N)C(=O)N[C@@H](C)C(=O)N[C@@H](CC(=O)O)C(=O)N[C@@H](C)C(=O)N[C@@H](CCCNC(=N)N)C(=O)N[C@@H](C)C(=O)N[C@@H](CC(=O)O)C(=O)N[C@@H](C)C(=O)NCC(=O)NCC(=O)NCC(=O)N[C@@H](C)C(=O)N[C@@H](C)C(=O)N1CCC[C@H]1C(=O)N[C@H](C(=O)NCC(=O)NCC(=O)NCC(=O)N[C@@H](CCCCN)C(=O)NCC(=O)N[C@@H](Cc1c[nH]cn1)C(=O)N[C@@H](CCCCN)C(N)=O)C(C)C [RADA-KGHK, Ac-(Arg-Ala-Asp-Ala)4-Gly-Gly-Gly-Ala-Ala-Pro-Val-Gly-Gly-Gly-Lys-Gly-His-Lys-NH2]
cytotoxicity (LDH), slight effect [1]: ca. 15%
epithelium (membrane-like structure) thickness on day 4 post-injury [2]: significantly thicker epithelium
cytotoxicity (LDH), slight effect [3]: ca. 15%
wound closure on day 7 ([4]; BALB/c female mice, 6.0 mm punch dorsal wounds, 10 µL 1% hydrogel topically daily for five days, n = 6, SD): 44.4 ± 4.9%
wound healing compared to RADA16-I ([4]; BALB/c mice, 1% hydrogel topically, day 2 up to day 14): Accelerated wound healing
